Test [1] deals with T1, Human TOR (Homo sapiens, UniProt P42345).
T1 construct: FLAG
In words: Human TOR (mTOR) kinase assay, DELFIA format. The settings on record: Table 2. The format is biochemical. In a few lines:
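Purified FLAG-TOR (800 ng/mL) phosphorylates His6-S6K ([…]) with […] ATP in Hepes pH 7.4 buffer containing MnCl2, 2 h at room temperature. Phospho-Thr389 S6K detected by DELFIA using Europium-labelled anti-P(T389)-p70S6K antibody; enzyme inhibition calculated from signal.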

In test [2] the test system is T2, PI3K.
T2 construct: PI3K FP IC50
In words: Fluorescence polarization assay for PI3K. The format is biochemical. The settings on record: Table 2. The essentials: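 PI3K was preincubated with compound at 1% DMSO final, then reacted with PIP2/ATP substrate for 30-60 min. The reaction was stopped with a detector mix giving 10 nM red probe and 70 nM GST-GRP. Fluorescence polarization (mP, Tamra filters) was read 30-90 min later and IC50 determined.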
(In general: Fluorescence polarisation rises when a labelled molecule tumbles more slowly, as on binding a larger partner.)

The subject of test [3] is phosphor-AKT (S473) in Rat1 cells. In words: Rat1-IGF1 assay (IGF-1 induced phospho-AKT immunoblot). Conditions: Rattus norvegicus, Table 2. The format is cell-based, rat. The essentials: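 After 24 h serum starvation, Rat1 cells got vehicle or varying 17-HWT concentrations for 2 hours, then IGF-1 (100 ng/mL) for 30 minutes. Lysates immunoblotted for phospho-AKT (S473) and total AKT.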
Background: A western blot detects proteins with antibodies after separation by electrophoresis.

For test [4], the system named is LNCaP (human prostate carcinoma). Briefly: Cell proliferation (MTS) assay, LNCaP. Conditions: Homo sapiens, LNCaP, 72 h, Table 2; three days treatment. Format: cell-based. In a few lines:
(§1)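 Cells plated at about 3000 per well in RPMI-1640/10% FBS were dosed with compound one day later. Viability was read by MTS conversion (absorbance 490 nm, 1–2 h) three days after treatment began. Effect is expressed as percent of vehicle-treated growth on the same plate.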

For test [5], the system named is MDA468 (human breast cancer cell). In words: Cell proliferation (MTS) assay, MDA468. The settings on record: Homo sapiens, 72 h, Table 2; three days treatment. The format is cell-based. The essentials: as §1
The subject of test [6] is MDA435 (human breast adenocarcinoma). In words: Cell proliferation (MTS) assay, MDA435. Format: cell-based. The settings on record: Homo sapiens, MDA435, 72 h, Table 2; three days treatment. In a few lines:
as §1

Test [7] concerns DU145 (human prostate carcinoma/lymphocytic leukemia). In words: Cell proliferation (MTS) assay, DU145. The format is cell-based. The settings on record: Homo sapiens, DU-145, 72 h, Table 2; three days treatment. In a few lines: as §1

The results in this text go back to US7666901B2, “Analogs of 17-hydroxywortmannin as PI3K inhibitors” (Wyeth, priority 2004, dated 2010).

The term IC50 denotes the concentration that inhibits the measured activity by half. A high value points to lower potency.

SMILES strings stand for the structures. In brackets after ≈: the same amount, converted by molar mass.

For `COCC1OC(=O)C(=CN2CCC(C(=O)O)CC2)C2=C(O)C(=O)C3=C(C(OC(C)=O)CC4(C)C(O)CCC34)C21C` (stereo not drawn) [Compound 23, 1-(11-Acetoxy-6,17-dihydroxy-1-methoxymethyl-10,13-dimethyl-3,7-dioxo-1,7,10,11,12,13,14,15,16,17-decahydro-2-oxa-cyclopenta[a]phenanthren-4-ylidenemethyl)-piperidine-4-carboxylic acid], the IC50 was 822 nM in test [1]; 33 nM in test [2]; 0.1 µg/mL (≈ 0.179 µM) in test [3]; 0.28 µg/mL (≈ 0.5 µM) in test [4]; 4 µg/mL (≈ 7.15 µM) in test [5]; 17 µg/mL (≈ 30.4 µM) in test [6]. The compound further came in with an IC50 in test [7] of 17 µg/mL (≈ 30.4 µM).
As for `COCC1OC(=O)C(=CN(C)C(C=C(C)C(=O)OC)C(C)C)C2=C(O)C(=O)C3=C(C(OC(C)=O)CC4(C)C(O)CCC34)C21C` (stereo not drawn) [Compound 24, 4-[(11-Acetoxy-6,17-dihydroxy-1-methoxymethyl-10,13-dimethyl-3,7-dioxo-1,7,10,11,12,13,14,15,16,17-decahydro-2-oxa-cyclopenta[a]phenanthren-4-ylidenemethyl)-methyl-amino]-2,5-dimethyl-hex-2-enoic acid methyl ester], the IC50 in test [1] was > 16200 nM; in test [2] it was 5400 nM; in test [3], > 0.1 µg/mL; in test [4], 0.13 µg/mL (≈ 0.211 µM); in test [5] it was 1.05 µg/mL (≈ 1.71 µM); in test [6], 10.1 µg/mL (≈ 16.3 µM). In test [7], this compound yielded an IC50 of 4 µg/mL (≈ 6.5 µM).
As for `COCC1OC(=O)C(=CN(C)CCCN2CCN(c3ccc(OC)cc3)CC2)C2=C(O)C(=O)C3=C(C(OC(C)=O)CC4(C)C(O)CCC34)C21C` (stereo not drawn) [Compound 25, Acetic acid 6,17-dihydroxy-1-methoxymethyl-4-[({3-[4-(4-methoxy-phenyl)-piperazin-1-yl]-propyl}-methyl-amino)-methylene]-10,13-dimethyl-3,7-dioxo-1,3,4,7,10,11,12,13,14,15,16,17-dodecahydro-2-oxa-cyclopenta[a]phenanthren-11-yl ester], the IC50 in test [1] was 1350 nM; in test [2] it was 15 nM; in test [3] it was 0.02 µg/mL (≈ 0.0288 µM); in test [4] it was 0.43 µg/mL (≈ 0.62 µM); in test [5] it was 4.3 µg/mL (≈ 6.2 µM); in test [6] it was 16 µg/mL (≈ 23.1 µM). 20.5 µg/mL (≈ 29.5 µM) corresponded to half-maximal inhibition in test [7] (IC50).
In the case of `COCC1OC(=O)C(=CN(C)CCCN2CCN(C)CC2)C2=C(O)C(=O)C3=C(C(OC(C)=O)CC4(C)C(O)CCC34)C21C` (stereo not drawn) [Compound 26, Acetic acid 6,17-dihydroxy-1-methoxymethyl-10,13-dimethyl-4-({methyl-[3-(4-methyl-piperazin-1-yl)-propyl]-amino}-methylene)-3,7-dioxo-1,3,4,7,10,11,12,13,14,15,16,17-dodecahydro-2-oxa-cyclopenta[a]phenanthren-11-yl ester], the IC50 in test [1] was 2330 nM; in test [2], 19 nM; in test [3], 0.02 µg/mL (≈ 0.0332 µM); in test [4], 0.28 µg/mL (≈ 0.465 µM); in test [5] it was 3.9 µg/mL (≈ 6.48 µM); in test [6], 21 µg/mL (≈ 34.9 µM). The compound also gave an IC50 in test [7] of 17 µg/mL (≈ 28.3 µM).
For the compound `COCC1OC(=O)C(=CN(C)CCCN2CCOCC2)C2=C(O)C(=O)C3=C(C(OC(C)=O)CC4(C)C(O)CCC34)C21C` (stereo not drawn) [Compound 27, Acetic acid 6,17-dihydroxy-1-methoxymethyl-10,13-dimethyl-4-{[methyl-(3-morpholin-4-yl-propyl)-amino]-methylene}-3,7-dioxo-1,3,4,7,10,11,12,13,14,15,16,17-dodecahydro-2-oxa-cyclopenta[a]phenanthren-11-yl ester], the 50% inhibitory concentration (IC50) in test [1] is 2290 nM; in test [2], 24 nM; in test [3], 0.1 µg/mL (≈ 0.17 µM); in test [4], 0.35 µg/mL (≈ 0.595 µM); in test [5] it was 5 µg/mL (≈ 8.49 µM); in test [6] it was 30 µg/mL (≈ 51 µM). Also, in test [7], the 50% inhibitory concentration (IC50) came to 23 µg/mL (≈ 39.1 µM).
With `CCN(CC)CCCN(C=C1C(=O)OC(COC)C2(C)C1=C(O)C(=O)C1=C2C(OC(C)=O)CC2(C)C(O)CCC12)CCS(=O)(=O)c1ccccc1` (stereo not drawn) [Compound 28, Acetic acid 4-{[(2-benzenesulfonyl-ethyl)-(3-diethylamino-propyl)-amino]-methylene}-6,17-dihydroxy-1-methoxymethyl-10,13-dimethyl-3,7-dioxo-1,3,4,7,10,11,12,13,14,15,16,17-dodecahydro-2-oxa-cyclopenta[a]phenanthren-11-yl ester], the IC50 is > 13700 nM in test [1]; 131 nM in test [2]; > 0.1 µg/mL in test [3]; 0.12 µg/mL (≈ 0.165 µM) in test [4]; 3 µg/mL (≈ 4.12 µM) in test [5]; 11 µg/mL (≈ 15.1 µM) in test [6]. In test [7], this compound showed an IC50 of 8.5 µg/mL (≈ 11.7 µM).
Consider `COCC1OC(=O)C(=CN(Cc2ccccc2)CC23CCCN(CCC2)C3)C2=C(O)C(=O)C3=C(C(OC(C)=O)CC4(C)C(O)CCC34)C21C` (stereo not drawn) [Compound 29, Acetic acid 4-{[(1-aza-bicyclo[3.3.1]non-5-ylmethyl)-benzyl-amino]-methylene}-6,17-dihydroxy-1-methoxymethyl-10,13-dimethyl-3,7-dioxo-1,3,4,7,10,11,12,13,14,15,16,17-dodecahydro-2-oxa-cyclopenta[a]phenanthren-11-yl ester], for which the IC50 is > 14800 nM in test [1]; 373 nM in test [2]; > 0.1 µg/mL in test [3]; 1.8 µg/mL (≈ 2.67 µM) in test [4]; 15 µg/mL (≈ 22.2 µM) in test [5]; > 30 µg/mL in test [6]. Also, the IC50 in test [7] stood at 30 µg/mL (≈ 44.5 µM).
With `COCC1OC(=O)C(=CN2CCN(CCCN3CCOCC3)CC2)C2=C(O)C(=O)C3=C(C(OC(C)=O)CC4(C)C(O)CCC34)C21C` (stereo not drawn) [Compound 30, Acetic acid 6,17-dihydroxy-1-methoxymethyl-10,13-dimethyl-4-[4-(3-morpholin-4-yl-propyl)-piperazin-1-ylmethylene]-3,7-dioxo-1,3,4,7,10,11,12,13,14,15,16,17-dodecahydro-2-oxa-cyclopenta[a]phenanthren-11-yl ester], the IC50 is 1200 nM in test [1]; 46 nM in test [2]; 0.02 µg/mL (≈ 0.0311 µM) in test [3]; 0.41 µg/mL (≈ 0.637 µM) in test [4]; 4 µg/mL (≈ 6.21 µM) in test [5]; 21 µg/mL (≈ 32.6 µM) in test [6]. In test [7], this compound showed an IC50 of 21 µg/mL (≈ 32.6 µM).
In the case of `COCC1OC(=O)C(=CN(C)CCN(C)C)C2=C(O)C(=O)C3=C(C(OC(C)=O)CC4(C)C(O)CCC34)C21C` (stereo not drawn) [Compound 31, Acetic acid 4-{[(2-dimethylamino-ethyl)-methyl-amino]-methylene}-6,17-dihydroxy-1-methoxymethyl-10,13-dimethyl-3,7-dioxo-1,3,4,7,10,11,12,13,14,15,16,17-dodecahydro-2-oxa-cyclopenta[a]phenanthren-11-yl ester], the IC50 in test [1] was 1280 nM; in test [2] it was 9 nM; in test [3], 0.1 µg/mL (≈ 0.188 µM); in test [4], 0.4 µg/mL (≈ 0.751 µM); in test [5], 4 µg/mL (≈ 7.51 µM); in test [6], 23 µg/mL (≈ 43.2 µM). In addition, the midpoint of inhibition in test [7], the IC50, lay at 21 µg/mL (≈ 39.4 µM).
In the case of `COCC1OC(=O)C(=CN2CCN(CCCN(C)C)CC2)C2=C(O)C(=O)C3=C(C(OC(C)=O)CC4(C)C(O)CCC34)C21C` (stereo not drawn) [Compound 32, Acetic acid 4-[4-(3-dimethylamino-propyl)-piperazin-1-ylmethylene]-6,17-dihydroxy-1-methoxymethyl-10,13-dimethyl-3,7-dioxo-1,3,4,7,10,11,12,13,14,15,16,17-dodecahydro-2-oxa-cyclopenta[a]phenanthren-11-yl ester], the half-inhibitory concentration (IC50) was 249 nM in test [1]; 39 nM in test [2]; 0.1 µg/mL (≈ 0.166 µM) in test [3]; 0.5 µg/mL (≈ 0.831 µM) in test [4]; 4.1 µg/mL (≈ 6.81 µM) in test [5]; 22 µg/mL (≈ 36.6 µM) in test [6]. In addition, it took 20 µg/mL (≈ 33.2 µM) to reach half-maximal inhibition in test [7] (IC50).
Consider `COCC1OC(=O)C(=CN2CCN(CCN3CCOCC3)CC2)C2=C(O)C(=O)C3=C(C(OC(C)=O)CC4(C)C(O)CCC34)C21C` (stereo not drawn) [Compound 33, Acetic acid 6,17-dihydroxy-1-methoxymethyl-10,13-dimethyl-4-[4-(2-morpholin-4-yl-ethyl)-piperazin-1-ylmethylene]-3,7-dioxo-1,3,4,7,10,11,12,13,14,15,16,17-dodecahydro-2-oxa-cyclopenta[a]phenanthren-11-yl ester], for which the IC50 is 619 nM in test [1]; 78 nM in test [2]; 0.1 µg/mL (≈ 0.159 µM) in test [3]; 0.5 µg/mL (≈ 0.794 µM) in test [4]; 4.3 µg/mL (≈ 6.83 µM) in test [5]; 18 µg/mL (≈ 28.6 µM) in test [6]. Moreover, in test [7], the 50% inhibitory concentration (IC50) turned out to be 20 µg/mL (≈ 31.8 µM).
Regarding `COCC1OC(=O)C(=CN2CCN(C3CCN(C)CC3)CC2)C2=C(O)C(=O)C3=C(C(OC(C)=O)CC4(C)C(O)CCC34)C21C` (stereo not drawn) [Compound 34, Acetic acid 6,17-dihydroxy-1-methoxymethyl-10,13-dimethyl-4-[4-(1-methyl-piperidin-4-yl)-piperazin-1-ylmethylene]-3,7-dioxo-1,3,4,7,10,11,12,13,14,15,16,17-dodecahydro-2-oxa-cyclopenta[a]phenanthren-11-yl ester], the IC50 was 961 nM in test [1]; 91 nM in test [2]; 0.1 µg/mL (≈ 0.163 µM) in test [3]; 0.48 µg/mL (≈ 0.782 µM) in test [4]; 6 µg/mL (≈ 9.78 µM) in test [5]; 22 µg/mL (≈ 35.8 µM) in test [6]. Moreover, the IC50 in test [7] was determined as 25 µg/mL (≈ 40.7 µM).
